1 compound from US20230112845A1, “COMPOSITIONS OF BERBERINE URSODE[…] METHODS THEREOF FOR TREATING FATTY LIVER DISEASE, DIABETES AND HYPERLIPIDEMIA” (SHENZHEN HIGHTIDE BIOPHARMACEUTICAL LTD., priority 2020, published 2023) can be followed below.

For this series, the system named is patients with presumed NASH and type 2 diabetes. Put plainly: Phase 2 trial: adverse events, safety and tolerability. The note with it: for Subjects with TEAEs Related to Study Drug: Diarrhea, number (%) / Subjects with TEAEs Related to Study Drug: GERD, number (%) / Subjects with TEAEs Related to Study Drug: Nausea, number (%) / Subjects with TEAEs requiring discontinuation of study drug: Abdominal distension, number (%) / Subjects with TEAEs requiring discontinuation of study drug: Acute myocardial infarction, number (%) / Subjects with TEAEs requiring discontinuation of study drug: Diarrhea, number (%) / Subjects with TEAEs requiring discontinuation of study drug: GERD, number (%) / Subjects with TEAEs requiring discontinuation of study drug: Headache and Facial Rash, number (%) / Subjects with TEAEs requiring discontinuation of study drug: Melena, number (%): placebo 0; for Subjects with TEAEs Related to Study Drug: Headache, number (%) / Subjects with TEAEs requiring discontinuation of study drug: Bladder Cancer, number (%): placebo 1 (3%). In kind it is in vivo, human. On the procedure:
A prospective, randomized, placebo-controlled trial of two doses of BUDCA administered orally was conducted in a cohort of 100 subjects with fatty liver disease and diabetes. Treatment was for 18 weeks and endpoints measured included reduction in liver fat content measured by […] proton density fat fraction, improvement in glycemic control, changes in liver-associated enzymes, safety and tolerability.
Patients with diabetes and presumed NASH were randomized into one of three treatment groups, as follows: 1) BUDCA 500 mg BID 2) 1,000 mg BID and 3) matching placebo. Presumed NASH was defined based largely on magnetic resonance imaging derived proton density fat fraction (MRI-PDFF) of 10% or more. Additional inclusion criteria further enriched the study population for having NASH by virtue of requiring corrected T1 (cT1) of more than 830 milliseconds and elevated serum aspartate aminotransferase (AST)≥20 units per liter (6). Subjects had to be overweight or obese with body mass index of 25 kg/m^2 or more.
Descriptive Statistics were used to summarize continuous data, and frequencies and percentages were used to summarize categorical data. The Safety Set consisted of all subjects who received at least one dose of study treatment. The Modified Efficacy Set is a subset of the Safety Set consisting of subjects that had at least one post-dose MRI-PDFF assessment. […] The primary endpoint was an absolute change from Baseline to Week 18 (or ET) in Liver Fat Content. Primary Endpoint summary measures were provided in both the Efficacy and Modified Efficacy sets, with the Efficacy Set prespecified as the primary analysis set. All other endpoints were prespecified to use the Modified Efficacy Set. Comparisons between active treatment groups relative to placebo were tested using Analysis of Covariance (ANCOVA) with treatment group as a fixed effect and baseline value of the parameters of interest as covariates. ANCOVA based LS Means and raw means have been reported. For statistical analysis of laboratory parameters (i.e. P-values), multiple imputation was used to take missing data into account. A two-sided alpha level of 0.05 without adjustment for multiple tests was used to indicate statistical significance. Analyses were performed using SAS System version 9.4.

“Also recorded” adds a separate entry of the source.

Regarding `COc1ccc2cc3[n+](cc2c1OC)CCc1cc2c(cc1-3)OCO2.C[C@H](CCC(=O)[O-])[C@H]1CC[C@H]2[C@@H]3[C@@H](O)C[C@@H]4C[C@H](O)CC[C@]4(C)[C@H]3CC[C@]12C` [BUDCA, berberine ursodeoxycholate], the tolerability entry (500 mg BID and 1,000 mg BID, 18 weeks) is recorded as “generally well tolerated; also recorded: relatively well tolerated”. Further, where the note is “500 mg BID, N = 33”, the “Subjects with TEAEs Related to Study Drug: Diarrhea, number (%)” value was 4 (12%); the “Subjects with TEAEs Related to Study Drug: GERD, number (%)” value is 2 (6%); the “Subjects with TEAEs Related to Study Drug: Nausea, number (%)” value is given as 1 (3%); the “Subjects with TEAEs requiring discontinuation of study drug: Abdominal distension, number (%)” value was determined as 0. Also, where the note is “500 mg BID, N = 33”, the “Subjects with TEAEs requiring discontinuation of study drug: Acute myocardial infarction, number (%)” value was 0; the “Subjects with TEAEs requiring discontinuation of study drug: Diarrhea, number (%)” value is listed as 0; the “Subjects with TEAEs requiring discontinuation of study drug: GERD, number (%)” value was 1 (3%); the “Subjects with TEAEs requiring discontinuation of study drug: Headache and Facial Rash, number (%)” value came to 0. Besides, where the note is “500 mg BID, N = 33”, the “Subjects with TEAEs requiring discontinuation of study drug: Melena, number (%)” value was 0; the “Subjects with TEAEs Related to Study Drug: Headache, number (%)” value is 2 (6%); the “Subjects with TEAEs requiring discontinuation of study drug: Bladder Cancer, number (%)” value was 0. Besides, where the note is “1,000 mg BID, N = 34”, the “Subjects with TEAEs Related to Study Drug: Diarrhea, number (%)” value is 9 (26%); the “Subjects with TEAEs Related to Study Drug: GERD, number (%)” value turned out to be 0; the “Subjects with TEAEs Related to Study Drug: Nausea, number (%)” value is 5 (15%); the “Subjects with TEAEs requiring discontinuation of study drug: Abdominal distension, number (%)” value was 1 (3%). Also, for the setting “1,000 mg BID, N = 34”, the “Subjects with TEAEs requiring discontinuation of study drug: Acute myocardial infarction, number (%)” value is on record as 1 (3%); the “Subjects with TEAEs requiring discontinuation of study drug: Diarrhea, number (%)” value was 2 (6%); the “Subjects with TEAEs requiring discontinuation of study drug: GERD, number (%)” value is 1 (3%); the “Subjects with TEAEs requiring discontinuation of study drug: Headache and Facial Rash, number (%)” value is 2 (6%). In addition, under “1,000 mg BID, N = 34”, the “Subjects with TEAEs requiring discontinuation of study drug: Melena, number (%)” value is on record as 1 (3%); the “Subjects with TEAEs Related to Study Drug: Headache, number (%)” value was 1 (3%); the “Subjects with TEAEs requiring discontinuation of study drug: Bladder Cancer, number (%)” value stood at 0. The “serious adverse event in the high dose group, relation to study drug” value (1,000 mg BID, one serious adverse event) is “not related to the study drug”.
